Measured values from patent US3954793A, “1-(2-Propynyl)-1 H-indazole compounds” (priority 1973, dated 1976).
Read-outs that look alike come from different tables or passages of the source.

Key:
[1] = test system: Wilson strain house flies; assay type: in vivo, Wilson strain (susceptible); details: for Contact Synergistic Ratio, Pyrolan: LC50 pyrolan alone / LC50 with synergist
Protocol: The required solutions of the insecticide and of the synergist compound were prepared in acetone at a concentration of 1 milligram per milliliter. One-pint wide mouth glass jars were coated with the appropriate insecticide-synergist combination by rolling the jars containing aliquots of the appropriate solutions diluted to three milliliters with acetone to deposit, by evaporation, a film of the test materials. The flies were transferred under carbon dioxide anesthesia and held in the jar at room temperature. Perforated aluminum foil was used to cover the jars and to hold cotton saturated with 10% sugar solution. Counts were made at intervals, but the recorded mortality was based on 24-hour kill, rather than knockdown. All prostrate non-moving flies were considered dead. A determination was then made of the contact synergistic ratio [SR], which is the ratio of the LC50 of insecticide alone to the LC50 of the insecticide when applied together with the synergist. The LC50 of the insecticide was estimated from a log-probit plot of percent kill versus dosage. […] The LC50 of the combination of insecticide and synergist was determined at a synergist to insecticide parts by weight ratio of five to one.

[2] = test system: Swiss albino, white male mice; assay: acute toxicity and synergism of acute toxicity in mice; assay type: in vivo; details: 48 hours, eight mice
Protocol: To determine the acute toxicity of dimetilan alone, eight dosage levels of Dimetilan, ranging from 4 to 32 mg per kg were applied to eight, Swiss, albino, white, male mice per dosage level. The mice weighed approximately 23 to 27 grams and were five to six weeks old. The Dimetilan was administered intraperitoneally in 0.1 ml of corn oil one hour after the administration of the same dose of corn oil alone.
To determine the acute toxicity of the synergist alone, various synergists were administered intraperitoneally at a dose of 1000 mg/kg to each of a group of eight mice. The number of animals dead at the end of 72 hours is reported in the left hand column of Table XXXXVI.
The synergism of the acute toxicity of Dimetilan by various synergists was determined by tests on Swiss albino, white male mice aged five to six weeks and weighing 23 to 27 grams. The synergists and insecticides were dissolved in corn oil and the drugs were dissolved in distilled water. All compounds were administered intraperitoneally by injection in the lower quadrent of the abdomen. The synergist was administered in 0.1 ml of corn oil one hour prior to administration of the insecticide. Eight mice were treated, per dosage, with each synergist. The mice were watched for a minimum of 6 hours while held in a glass jar with bedding individually after intraperitoneal injection of the test solutions. Lethality was noted, the animals were weighed and transferred in cages, and food and water were supplied. Control mice were given 0.1 ml of corn oil at the time of administration of the synergist to the test mice and 0.1 ml corn oil plus Dimetilan at the time of administration of the insecticide to the test mice.
By the same procedure, the synergism of acute toxicity of GS 13005, Secobarbital and 6-dimethylamino-4,4-diphenyl-3-heptanone [Methadone] was determined.

male mice = assay: extension of sleeping time of depressant drugs by synergists; assay type: in vivo, male mice (Swiss albino white); details: for Mean Sleeping Time, Noludar / Relative Sleeping Time, Noludar: Noludar 110 mg/kg; for Relative Sleeping Time, Noludar / Relative Sleeping Time, Secobarbital: treated/control; for Mean Sleeping Time, Secobarbital / Relative Sleeping Time, Secobarbital: Secobarbital 37 mg/kg
Protocol: The selectivity of the synergist compounds of this invention is illustrated by the results of sleeping-time extension tests and of acute toxicity tests on Swiss albino white male mice.
The effect of various synergist compounds on sleeping time of sodium secobarbital [Secobarbital] and of 3,3-diethyl-5-methyl-2,4-dioxypiperidine [Noludar] was determined by administering the drug, with and without synergist, to approximately 38-day old male mice weighing from 25 to 30 grams. Synergists were administered in each of two doses, 74.0 mg/kg (dilution being 2.0 mg/0.1 ml corn oil), and 110.0 mg/kg (dilution 3.0 mg/0.1 ml oil). Secobarbital was administered at a dose of 37.0 mg/kg (dilution 1.0 mg/0.1 ml water). Noludar was administered at a dose of 110.0 mg/kg (dilution 3.0 mg/0.1 ml water). The synergist was administered one hour prior to administration of the Secobarbital or Noludar. Secobarbital and Noludar sleeping times were obtained for both the control (drug only) and the treated (synergist plus drug) mice by noting the time lapse between the administration of the drug and the recovery of the righting reflex, i.e. when the animal regains conciousness and can walk up an inclined wooden tray with coordination. The relative sleeping time (R.S.) was noted. The R.S. is the extended sleeping time in the treated mice (synergist plus drug) divided by the sleeping time in the control mice (drug only). The mean sleeping time for the treated mice and the R.S. are shown on Table XXXXIV for various synergist compounds.

[3] = test system: IN/WHO strain house flies; assay: topical application, percent kill after 24 hours, susceptible IN/WHO strain; assay type: in vivo, female); details: for percent kill after 24 hours, synergist alone (GS 13005 part of Table XXXI): GS 13005 0, synergist 1 μg/fly; for percent kill after 24 hours, with GS 13005: GS 13005 0.10 + synergist 0.50 μg/fly; for percent kill after 24 hours, with Mobam: Mobam 0.20 + synergist 1 μg/fly; for percent kill after 24 hours, synergist alone: insecticide 0, synergist 1 μg/fly
Protocol: (§1) In Table IX, and in the tables following it, the doses of topically applied insecticides and of synergists unless otherwise noted are expressed as micrograms per fly (μg/fly).
(§2) The synergistic effect of O-(2-propynyl) oximes with mobam was determined from topical application tests on susceptible, female, IN/WHO strain house flies and from tests on resistant, female, Rutgers A strain house flies. The synergist and insecticide were dissolved in ACS Grade acetone in such quantities that a 1.0 μ liter volume applied to the thorax of 3-to-5 day old CO2 -anesthetized female adult house flies contained the desired dosage. After being treated, the flies were confined, 10 to a plaster petri dish, with 3-5 dishes/treament, and held for 24-hr. observation of mortality. Reconstituted skim milk on cotton dental wicks was provided during the holding period. The percent kills after 24 hours are shown in Table X for the IN/WHO strain and Table XI for the Rutgers A strain.
(§3) The synergistic effect of benzyl 2-propynyl ethers with mobam was determined from topical application tests on IN/WHO and Rutgers A strain houseflies, following the procedure of Example 5. The percent kills after 24 hours are shown in Table XIV for the IN/WHO strain and in Table XV for the Rutgers A strain.
The effects of varying the insecticide dose and the synergist-insecticide ratio are further illustrated, with synergist compounds II-D, II-E, II-F and Mobam insecticide, in Tables XVI, XVII and XVIII. […]
The effect on IN/WHO flies of synergist compound IV-C, identified in Table IV, with mobam was determined by the topical application procedure of Example 5. […]
(§4) The synergistic effect with GS 13005 of compounds I-A, I-B, I-D, I-E, I-F, I-G and I-I was determined from topical application tests to IN/WHO strain, Rutgers A strain and polyvalent CH strain houseflies using the procedures of Example 5. The percent kills of the IN/WHO strain flies after 24 hours are shown in Table XXVIII; of the Rutgers A strain, in Table XXIX; and of the polyvalent CH strain, in Table XXX. The doses of insecticide alone to the CH strain files caused 10-40% mortality.
The synergistic effect with Diazinon and GS 13005 of various of the benzyl 2-propynyl ethers identified in Tables II and IIa was determined by topical application tests on IN/WHO strain, and Rutgers A strain and polyvalent, resistant, CH strain houseflies using the procedures of Example 5. The percent kills after 24 hours of IN/WHO strain flies are shown in Table XXXI; of Rutgers A strain flies, in Table XXXII; and of CH strain flies, in Table XXXIII. The doses of insecticide alone to the CH strain flies caused 10-40% mortality. […]
(§5) The synergistic effect on IN/WHO strain flies and Rutgers A strain flies of compound IV-C with GS 13005 and with Diazinon was determined by the topical application procedure of Example 5. The percent kills of IN/WHO strain flies after 24 hours are shown in Tables XXXVI and XXXVII; the percent kills of Rutgers A strain flies are shown in Tables XXXVIII and XXXIX.

[4] = test system: Rutgers A strain house flies; assay: topical application, percent kill after 24 hours, resistant Rutgers A strain; assay type: in vivo, female); details: for percent kill after 24 hours, with GS 13005: GS 13005 1.0 + synergist 5.0 μg/fly; for percent kill after 24 hours, synergist alone: insecticide 0, synergist 5.0 μg/fly
Protocol: as §1, §2, §3
The synergistic effect with Diazinon of compounds I-B, I-D, I-F, I-G, I-H and I-I, identified in Tables I and Ia, was determined from topical application tests on IN/WHO strain houseflies and on Rutgers A strain houseflies by the procedure of Example 5. The percent kills after 24 hours are shown in Table XXV for the IN/WHO strain and Table XXVI for the Rutgers A strain.
as §4
The synergistic effect with Diazinon and GS 13005 of various of the benzyl 2-propynyl ethers identified in Tables II and IIa was determined by topical application tests on IN/WHO strain, and Rutgers A strain and polyvalent, resistant, CH strain houseflies using the procedures of Example 5. The percent kills after 24 hours of IN/WHO strain flies are shown in Table XXXI; of Rutgers A strain flies, in Table XXXII; and of CH strain flies, in Table XXXIII. The doses of insecticide alone to the CH strain flies caused 10-40% mortality.
as §5

[5] = synergist to insecticide 5:1 by weight
[6] = Dimetilan 8 + synergist 80 mg/kg i.p.
[7] = Dimetilan 8 + synergist 240 mg/kg i.p.
[8] = synergist 110 mg/kg one hour prior
[9] = synergist 74 mg/kg one hour prior

| SMILES | Contact Synergistic Ratio, Pyrolan [1, 5] | Contact Synergistic Ratio, Carbaryl ([1]; in vivo) | number of mice dead, with Dimetilan [2, 6] | number of mice dead, with Dimetilan [2, 7] | Mean Sleeping Time, Noludar (male mice; [8]) | Relative Sleeping Time, Noludar (male mice; synergist 110 mg/kg) | Mean Sleeping Time, Secobarbital (male mice; [9]) | Relative Sleeping Time, Secobarbital (male mice; synergist 74 mg/kg) | Mean Sleeping Time, Secobarbital (male mice; [8]) | Relative Sleeping Time, Secobarbital (male mice; synergist 110 mg/kg) | also measured |
| --- | --- | --- | --- | --- | --- | --- | --- | --- | --- | --- | --- |
| C#CCOC(c1ccc(Cl)cc1Cl)C(C)[N+](=O)[O-] (centres unmarked) [IV-A, 2-propynyl 1-(2,4-dichlorophenyl)-2-nitropropyl ether] | 10 | 134 | 4 | 7 | 78 min | 2.7 | 56 min | 2.3 |  |  |  |
| C#CCON=Cc1ccc(N(C)C)cc1 [I-C] | 20 | 200 |  | 0 | 34 min | 1.0 | 30 min | 1.1 | 108 min | 1.8 |  |
| C#CCOCc1ccc(Cl)cc1 [II-A] | 7 | 50 |  |  |  |  |  |  |  |  |  |
| C#CCOCc1cccc([N+](=O)[O-])c1Cl [II-L] |  |  | 0 | 5 | 56 min | 1.8 | 31 min | 1.0 | 42 min | 1.8 | percent kill after 24 hours, synergist alone (GS 13005 part of Table XXXI) [3]: 3%; percent kill after 24 hours, with GS 13005 [3]: 97%; percent kill after 24 hours, with Mobam [3]: 89%; percent kill after 24 hours, synergist alone [3]: 3%; percent kill after 24 hours, with GS 13005 [4]: 83%; percent kill after 24 hours, with Mobam ([4]; Mobam 0.40 + synergist 2.0 μg/fly): 52%; percent kill after 24 hours, synergist alone [4]: 0% |
| C#CCn1ncc2cc([N+](=O)[O-])ccc21 [III-A] | 30 | 143 |  | 0 | 32 min | 1.0 |  |  | 50 min | 1.1 |  |
| C#CCOCc1ccc(Cl)cc1Cl [II-B] | 15 | 50 |  |  |  |  |  |  |  |  |  |
| Cc1cc(OC(=O)N(C)C)n(-c2ccccc2)n1 [Pyrolan, 3-methyl-1-phenyl-5-pyrazolyl-N-dimethylcarbamate, reference compound] |  |  |  |  |  |  |  |  |  |  | LC50 of insecticide alone ([1]; Wilson strain fly, 24-hour kill, no synergist): 0.15 mg/jar; 24 hour percent mortality, Pyrolan alone ([3]; Pyrolan 0.63 μg/fly): 0% |
| C#CCOC(c1cccc2ccccc12)C(C)[N+](=O)[O-] (centres unmarked) [IV-B, 2-propynyl 1-naphthyl-2-nitropropyl ether] | 10 | 50 |  |  |  |  |  |  |  |  |  |
| C#CCOCc1ccc([N+](=O)[O-])cc1Cl [II-N] |  |  | 0 | 4 | 58 min | 1.9 | 20 min | 1.0 | 39 min | 1.7 | percent kill after 24 hours, with GS 13005 [3]: 84%; percent kill after 24 hours, with Mobam [3]: 97%; percent kill after 24 hours, with GS 13005 [4]: 60% |
| C#CCOCc1ccc2c(c1)OCO2 [II-G] | 15 |  |  |  |  |  |  |  |  |  | Contact Synergistic Ratio, Carbaryl ([1]; LC50 carbaryl alone / LC50 with synergist, synergist to insecticide 5:1 by weight): 100 |
| C#CCOCc1ccc([N+](=O)[O-])c(Cl)c1 [II-O] |  |  | 0 | 2 | 52 min | 2.4 |  |  | 26 min | 1.1 | percent kill after 24 hours, synergist alone (GS 13005 part of Table XXXI) [3]: 10%; percent kill after 24 hours, with GS 13005 [3]: 90%; percent kill after 24 hours, with Mobam [3]: 60%; percent kill after 24 hours, synergist alone [3]: 10%; percent kill after 24 hours, with GS 13005 [4]: 47%; percent kill after 24 hours, synergist alone [4]: 3% |
| C#CCn1nc(Cl)c2ccc([N+](=O)[O-])cc21 [III-C, N-(2-propynyl)-3-chloro-6-nitroindazole] | 10 | 53 |  |  |  |  |  |  |  |  |  |
